From patent US9738612B2, “Methylacryloyl benzimidazolone derivative and anti-tumour use thereof” (SHANGHAI NATURE STANDARD R&D AND BIOTECH CO., LTD, priority 2014, dated 2017)

Tests used:
Assay in all cases: Tumor-associated kinase inhibition test
Assay type in all cases: biochemical
[1] = target: T1, PKCε(h) (Homo sapiens, UniProt Q02156); conditions: read-out: Inhibitory rate (%)
T1 construct: purchased Eurofins Pharma Discovery Services UK Limited
Source text: (§1) Eurofins Pharma Discovery Services UK Limited completed and reported this experiment.

[2] = target: T2, Syk(h) (Homo sapiens, UniProt P43405); conditions: read-out: Inhibitory rate (%)
T2 construct: purchased Eurofins Pharma Discovery Services UK Limited
Source text: as §1

[3] = target: T3, p70S6K(h) (Homo sapiens, UniProt P23443); conditions: read-out: Inhibitory rate (%)
T3 construct: purchased Eurofins Pharma Discovery Services UK Limited
Source text: as §1

[4] = target: T4, IRAK1(h) (Homo sapiens, UniProt P51617); conditions: read-out: Inhibitory rate (%)
T4 construct: purchased Eurofins Pharma Discovery Services UK Limited (contract testing)
T4 sequence (P51617 whole entry): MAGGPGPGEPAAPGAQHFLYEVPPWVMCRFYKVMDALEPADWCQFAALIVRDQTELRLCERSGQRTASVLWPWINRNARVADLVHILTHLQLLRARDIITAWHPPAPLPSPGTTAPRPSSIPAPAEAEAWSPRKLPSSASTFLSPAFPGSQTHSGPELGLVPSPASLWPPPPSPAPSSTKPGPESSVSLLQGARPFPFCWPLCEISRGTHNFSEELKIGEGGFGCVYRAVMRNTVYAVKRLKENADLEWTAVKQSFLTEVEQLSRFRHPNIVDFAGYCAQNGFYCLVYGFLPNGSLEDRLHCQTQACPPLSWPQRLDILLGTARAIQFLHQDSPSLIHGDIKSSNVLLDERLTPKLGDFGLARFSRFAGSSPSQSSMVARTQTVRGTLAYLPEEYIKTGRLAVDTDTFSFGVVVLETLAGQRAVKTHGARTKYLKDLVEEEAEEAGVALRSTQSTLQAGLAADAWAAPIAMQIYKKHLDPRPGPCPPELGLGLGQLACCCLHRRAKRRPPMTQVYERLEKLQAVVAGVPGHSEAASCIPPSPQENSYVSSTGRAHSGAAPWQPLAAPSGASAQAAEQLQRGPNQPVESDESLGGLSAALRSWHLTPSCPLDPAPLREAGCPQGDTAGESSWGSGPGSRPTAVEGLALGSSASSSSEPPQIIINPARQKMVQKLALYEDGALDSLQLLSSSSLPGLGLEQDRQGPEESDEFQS
Source text: as §1

[5] = target: T5, Fes(h) (Homo sapiens, UniProt P07332); conditions: read-out: Inhibitory rate (%)
T5 construct: purchased Eurofins Pharma Discovery Services UK Limited (contract testing)
T5 sequence (P07332 whole entry): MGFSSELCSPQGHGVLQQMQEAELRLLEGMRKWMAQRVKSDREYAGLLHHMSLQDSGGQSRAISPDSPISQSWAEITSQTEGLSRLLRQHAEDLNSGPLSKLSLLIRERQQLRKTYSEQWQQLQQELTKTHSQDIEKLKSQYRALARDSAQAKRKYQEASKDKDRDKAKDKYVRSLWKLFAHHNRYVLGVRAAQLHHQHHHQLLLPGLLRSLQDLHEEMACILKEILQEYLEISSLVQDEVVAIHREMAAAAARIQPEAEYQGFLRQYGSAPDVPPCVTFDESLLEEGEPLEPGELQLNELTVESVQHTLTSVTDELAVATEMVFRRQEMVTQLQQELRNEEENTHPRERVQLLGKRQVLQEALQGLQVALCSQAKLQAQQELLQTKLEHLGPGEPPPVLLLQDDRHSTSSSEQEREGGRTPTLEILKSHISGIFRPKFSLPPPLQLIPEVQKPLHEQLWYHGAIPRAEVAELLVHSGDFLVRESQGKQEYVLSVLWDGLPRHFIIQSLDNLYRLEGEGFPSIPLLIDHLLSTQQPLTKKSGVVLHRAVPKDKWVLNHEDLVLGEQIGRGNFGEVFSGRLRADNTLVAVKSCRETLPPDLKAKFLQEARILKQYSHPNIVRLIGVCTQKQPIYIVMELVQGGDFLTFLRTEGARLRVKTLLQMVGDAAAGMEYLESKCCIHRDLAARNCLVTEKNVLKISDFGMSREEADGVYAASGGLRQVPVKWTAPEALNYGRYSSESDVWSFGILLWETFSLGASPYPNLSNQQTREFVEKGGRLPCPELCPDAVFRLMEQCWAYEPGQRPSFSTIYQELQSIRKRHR
Source text: as §1

[6] = target: T6, CDK5/p35(h) (Homo sapiens, UniProt Q00535); conditions: read-out: Inhibitory rate (%)
T6 construct: purchased Eurofins Pharma Discovery Services UK Limited (contract assay service)
T6 sequence (Q00535 whole entry): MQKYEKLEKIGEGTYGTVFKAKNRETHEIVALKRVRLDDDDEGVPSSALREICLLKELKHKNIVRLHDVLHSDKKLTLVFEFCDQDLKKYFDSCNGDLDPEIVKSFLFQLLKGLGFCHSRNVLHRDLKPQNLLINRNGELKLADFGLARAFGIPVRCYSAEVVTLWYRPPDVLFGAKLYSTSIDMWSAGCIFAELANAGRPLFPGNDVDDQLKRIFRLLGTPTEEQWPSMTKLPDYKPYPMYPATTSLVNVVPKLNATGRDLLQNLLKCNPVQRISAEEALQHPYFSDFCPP
T6 sequence (Q15078 whole entry partner): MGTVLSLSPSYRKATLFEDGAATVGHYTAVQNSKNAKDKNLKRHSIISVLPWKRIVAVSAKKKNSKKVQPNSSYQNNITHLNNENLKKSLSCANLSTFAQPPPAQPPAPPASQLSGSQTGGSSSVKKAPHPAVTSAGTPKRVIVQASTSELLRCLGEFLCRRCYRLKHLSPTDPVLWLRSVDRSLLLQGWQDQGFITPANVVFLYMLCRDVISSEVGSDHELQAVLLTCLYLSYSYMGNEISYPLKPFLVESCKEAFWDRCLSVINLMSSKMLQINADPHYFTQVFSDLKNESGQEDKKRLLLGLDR
Source text: as §1

[7] = target: T7, PI3Kinase(p110α(E545K)/p85α)(h) (Homo sapiens, UniProt P42336, E545K); conditions: read-out: Inhibitory rate (%)
T7 construct: purchased Eurofins Pharma Discovery Services UK Limited (contract assay)
Source text: as §1

[8] = target: T8, Bmx(h) (Homo sapiens, UniProt P51813); conditions: read-out: Inhibitory rate (%)
T8 construct: purchased Eurofins Pharma Discovery Services UK Limited (contract assay service)
Source text: as §1

[9] = target: T9, PRK2(h) (Homo sapiens, UniProt Q16513); conditions: read-out: Inhibitory rate (%)
T9 construct: purchased Eurofins Pharma Discovery Services UK Limited
Source text: as §1

[10] = target: T10, MARK1(h) (Homo sapiens, UniProt Q9P0L2); conditions: read-out: Inhibitory rate (%)
T10 construct: purchased Eurofins Pharma Discovery Services UK Limited
T10 sequence (Q9P0L2 whole entry): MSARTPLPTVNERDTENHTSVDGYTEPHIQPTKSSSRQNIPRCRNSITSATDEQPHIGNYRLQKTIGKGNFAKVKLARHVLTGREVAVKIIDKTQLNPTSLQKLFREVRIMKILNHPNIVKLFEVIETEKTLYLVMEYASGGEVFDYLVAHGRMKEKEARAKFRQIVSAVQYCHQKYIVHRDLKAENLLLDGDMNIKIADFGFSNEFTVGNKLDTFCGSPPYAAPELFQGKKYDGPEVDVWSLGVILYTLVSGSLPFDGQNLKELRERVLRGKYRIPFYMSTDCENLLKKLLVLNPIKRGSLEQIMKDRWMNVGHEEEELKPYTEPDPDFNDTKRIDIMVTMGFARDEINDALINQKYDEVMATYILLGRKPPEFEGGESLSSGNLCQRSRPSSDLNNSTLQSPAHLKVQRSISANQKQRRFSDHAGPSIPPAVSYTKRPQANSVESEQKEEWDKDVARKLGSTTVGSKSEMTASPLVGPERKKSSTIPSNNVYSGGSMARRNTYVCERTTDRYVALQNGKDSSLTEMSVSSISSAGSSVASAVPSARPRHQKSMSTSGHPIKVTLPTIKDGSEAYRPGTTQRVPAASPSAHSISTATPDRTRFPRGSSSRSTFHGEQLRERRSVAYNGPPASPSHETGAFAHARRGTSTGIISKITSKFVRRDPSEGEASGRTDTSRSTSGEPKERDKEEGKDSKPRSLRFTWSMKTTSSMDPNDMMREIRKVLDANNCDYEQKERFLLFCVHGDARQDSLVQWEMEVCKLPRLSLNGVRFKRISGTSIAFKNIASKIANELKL
Source text: as §1

[11] = target: T11, EphB2(h) (Homo sapiens, UniProt P29323); conditions: read-out: Inhibitory rate (%)
T11 construct: purchased Eurofins Pharma Discovery Services UK Limited (contract testing)
Source text: as §1

[12] = target: T12, PAK2(h) (Homo sapiens, UniProt Q13177); conditions: read-out: Inhibitory rate (%)
T12 construct: purchased Eurofins Pharma Discovery Services UK Limited
Source text: as §1

[13] = target: T13, Ros(h) (Homo sapiens, UniProt P08922); conditions: read-out: Inhibitory rate (%)
T13 construct: purchased Eurofins Pharma Discovery Services UK Limited
Source text: as §1

[14] = target: T14, PRAK(h) (Homo sapiens, UniProt Q8IW41); conditions: read-out: Inhibitory rate (%)
T14 construct: purchased Eurofins Pharma Discovery Services UK Limited
T14 sequence (Q8IW41 whole entry): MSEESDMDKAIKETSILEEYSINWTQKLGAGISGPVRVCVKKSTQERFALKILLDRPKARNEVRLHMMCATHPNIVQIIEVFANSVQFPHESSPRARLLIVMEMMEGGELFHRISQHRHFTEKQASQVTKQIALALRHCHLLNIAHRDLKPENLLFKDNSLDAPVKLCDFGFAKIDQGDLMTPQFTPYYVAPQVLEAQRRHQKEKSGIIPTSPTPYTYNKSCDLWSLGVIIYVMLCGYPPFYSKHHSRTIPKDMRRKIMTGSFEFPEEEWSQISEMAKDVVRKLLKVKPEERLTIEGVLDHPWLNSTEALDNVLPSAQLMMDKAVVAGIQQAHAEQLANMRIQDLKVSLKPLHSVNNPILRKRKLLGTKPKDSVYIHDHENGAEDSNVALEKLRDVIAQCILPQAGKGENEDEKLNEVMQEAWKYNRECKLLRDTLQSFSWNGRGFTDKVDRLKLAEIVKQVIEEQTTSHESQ
Source text: as §1

[15] = target: T15, Aurora-A(h) (Homo sapiens, UniProt O14965); conditions: read-out: Inhibitory rate (%)
T15 construct: purchased Eurofins Pharma Discovery Services UK Limited (contract assay service)
Source text: as §1

[16] = target: T16, KDR(h) (Homo sapiens, UniProt P35968); conditions: read-out: Inhibitory rate (%)
T16 construct: purchased Eurofins Pharma Discovery Services UK Limited
Source text: as §1

[17] = target: T17, Yes(h) (Homo sapiens, UniProt P07947); conditions: read-out: Inhibitory rate (%)
T17 construct: purchased Eurofins Pharma Discovery Services UK Limited
Source text: as §1

[18] = target: T18, MKK6(h) (Homo sapiens, UniProt P52564); conditions: read-out: Inhibitory rate (%)
T18 construct: purchased Eurofins Pharma Discovery Services UK Limited
Source text: as §1

[19] = target: T19, ASK1(h) (Homo sapiens, UniProt Q99683); conditions: read-out: Inhibitory rate (%)
T19 construct: purchased Eurofins Pharma Discovery Services UK Limited (contract assay service)
Source text: as §1

[20] = target: T20, mTOR/FKBP12(h) (Homo sapiens, UniProt P42345); conditions: read-out: Inhibitory rate (%)
T20 construct: purchased Eurofins Pharma Discovery Services UK Limited
Source text: as §1

[21] = target: T21, PKCθ(h) (Homo sapiens, UniProt Q04759); conditions: read-out: Inhibitory rate (%)
T21 construct: purchased Eurofins Pharma Discovery Services UK Limited
Source text: as §1

[22] = target: T22, Axl(h) (Homo sapiens, UniProt P30530); conditions: read-out: Inhibitory rate (%)
T22 construct: purchased Eurofins Pharma Discovery Services UK Limited (contract assay service)
Source text: as §1

[23] = target: T23, mTOR(h) (Homo sapiens, UniProt P42345)
T23 construct: purchased Eurofins Pharma Discovery Services UK Limited (contract assay)
Source text: as §1

[24] = target: T24, CaMKK2(h) (Homo sapiens, UniProt Q96RR4); conditions: read-out: Inhibitory rate (%)
T24 construct: purchased Eurofins Pharma Discovery Services UK Limited (contract assay service)
Source text: as §1

[25] = target: T25, JNK2α2(h) (Homo sapiens, UniProt P45984); conditions: read-out: Inhibitory rate (%)
T25 construct: purchased Eurofins Pharma Discovery Services UK Limited (contract testing)
Source text: as §1

[26] = target: T26, PKBβ(h) (Homo sapiens, UniProt P31751); conditions: read-out: Inhibitory rate (%)
T26 construct: purchased Eurofins Pharma Discovery Services UK Limited
T26 sequence (P31751 whole entry): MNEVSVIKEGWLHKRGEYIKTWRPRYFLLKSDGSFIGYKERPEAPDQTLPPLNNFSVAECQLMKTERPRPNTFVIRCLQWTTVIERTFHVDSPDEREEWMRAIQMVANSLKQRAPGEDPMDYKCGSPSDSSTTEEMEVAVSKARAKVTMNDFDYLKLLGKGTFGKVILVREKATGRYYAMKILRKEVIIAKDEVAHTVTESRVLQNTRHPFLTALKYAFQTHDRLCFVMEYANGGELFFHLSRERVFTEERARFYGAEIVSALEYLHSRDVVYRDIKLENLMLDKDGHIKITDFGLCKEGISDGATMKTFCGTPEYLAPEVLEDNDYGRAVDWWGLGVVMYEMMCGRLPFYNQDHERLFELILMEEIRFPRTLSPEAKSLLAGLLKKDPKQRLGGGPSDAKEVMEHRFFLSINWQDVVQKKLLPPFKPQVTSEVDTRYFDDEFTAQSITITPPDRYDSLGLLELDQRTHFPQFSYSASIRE
Source text: as §1

[27] = target: T27, Arg(h) (Homo sapiens, UniProt P42684); conditions: read-out: Inhibitory rate (%)
T27 construct: purchased Eurofins Pharma Discovery Services UK Limited (contract assay service)
Source text: as §1

[28] = target: T28, EphB4(h) (Homo sapiens, UniProt P54760); conditions: read-out: Inhibitory rate (%)
T28 construct: purchased Eurofins Pharma Discovery Services UK Limited (contract testing)
T28 sequence (P54760 16-987): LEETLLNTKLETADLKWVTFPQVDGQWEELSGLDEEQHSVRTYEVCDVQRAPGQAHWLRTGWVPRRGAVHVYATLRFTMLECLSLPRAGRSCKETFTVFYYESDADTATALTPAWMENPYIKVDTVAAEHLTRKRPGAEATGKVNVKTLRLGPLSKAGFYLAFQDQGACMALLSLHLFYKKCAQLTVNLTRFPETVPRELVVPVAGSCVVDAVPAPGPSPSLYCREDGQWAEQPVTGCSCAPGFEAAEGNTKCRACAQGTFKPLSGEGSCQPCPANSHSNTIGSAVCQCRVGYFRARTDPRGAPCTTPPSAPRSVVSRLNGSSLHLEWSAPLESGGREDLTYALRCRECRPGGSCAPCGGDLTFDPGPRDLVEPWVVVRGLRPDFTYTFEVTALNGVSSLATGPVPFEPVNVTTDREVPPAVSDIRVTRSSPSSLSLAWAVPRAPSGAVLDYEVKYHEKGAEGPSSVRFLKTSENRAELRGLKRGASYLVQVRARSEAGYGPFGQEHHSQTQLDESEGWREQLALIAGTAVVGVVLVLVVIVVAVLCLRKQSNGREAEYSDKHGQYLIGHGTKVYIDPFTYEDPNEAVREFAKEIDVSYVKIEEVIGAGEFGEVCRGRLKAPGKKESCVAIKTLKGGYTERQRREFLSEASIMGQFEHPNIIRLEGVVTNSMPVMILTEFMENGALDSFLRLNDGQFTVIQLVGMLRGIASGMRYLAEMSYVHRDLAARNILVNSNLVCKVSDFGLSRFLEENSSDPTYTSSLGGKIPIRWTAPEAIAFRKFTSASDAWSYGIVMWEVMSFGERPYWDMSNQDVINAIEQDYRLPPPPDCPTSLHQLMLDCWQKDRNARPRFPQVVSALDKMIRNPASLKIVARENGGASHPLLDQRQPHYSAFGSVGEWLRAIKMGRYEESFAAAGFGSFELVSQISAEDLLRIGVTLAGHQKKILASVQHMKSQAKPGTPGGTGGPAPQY
Source text: as §1

[29] = target: T29, FGFR1(h) (Homo sapiens, UniProt P11362); conditions: read-out: Inhibitory rate (%)
T29 construct: purchased Eurofins Pharma Discovery Services UK Limited (contract testing)
Source text: as §1

[30] = target: T30, cSRC(h) (Homo sapiens, UniProt P12931); conditions: read-out: Inhibitory rate (%)
T30 construct: purchased Eurofins Pharma Discovery Services UK Limited (contract testing)
Source text: as §1

[31] = target: T31, GSK3β(h) (Homo sapiens, UniProt P49841); conditions: read-out: Inhibitory rate (%)
T31 construct: purchased Eurofins Pharma Discovery Services UK Limited (contract testing)
Source text: as §1

[32] = target: T32, PKBγ(h) (Homo sapiens, UniProt Q9Y243); conditions: read-out: Inhibitory rate (%)
T32 construct: purchased Eurofins Pharma Discovery Services UK Limited
Source text: as §1

[33] = target: T33, PI3Kinase(p110α(E542K)/p85α)(h) (Homo sapiens, UniProt P42336, E542K); conditions: read-out: Inhibitory rate (%)
T33 construct: purchased Eurofins Pharma Discovery Services UK Limited (contract assay)
Source text: as §1

[34] = target: T34, MST2(h) (Homo sapiens, UniProt Q13188); conditions: read-out: Inhibitory rate (%)
T34 construct: purchased Eurofins Pharma Discovery Services UK Limited
Source text: as §1

[35] = target: T35, IKKα(h) (Homo sapiens, UniProt O15111); conditions: read-out: Inhibitory rate (%)
T35 construct: purchased Eurofins Pharma Discovery Services UK Limited (contract testing)
Source text: as §1

[36] = target: T36, ALK(h) (Homo sapiens, UniProt Q9UM73); conditions: read-out: Inhibitory rate (%)
T36 construct: purchased Eurofins Pharma Discovery Services UK Limited (contract assay service)
Source text: as §1

[37] = target: T37, CDK3/cyclinE(h) (Homo sapiens, UniProt Q00526); conditions: read-out: Inhibitory rate (%)
T37 construct: purchased Eurofins Pharma Discovery Services UK Limited (contract assay service)
Source text: as §1

[38] = target: T38, Abl(T315I)(h) (Homo sapiens, UniProt P00519, T315I); conditions: read-out: Inhibitory rate (%)
T38 construct: purchased Eurofins Pharma Discovery Services UK Limited (contract assay service)
Source text: as §1

[39] = target: T39, PI3Kinase(p110β/p85α)(h) (Homo sapiens, UniProt P42338); conditions: read-out: Inhibitory rate (%)
T39 construct: purchased Eurofins Pharma Discovery Services UK Limited (contract assay)
Source text: as §1

SMILES: C=C(C)n1c(=O)n(C(C)=O)c2ncc(Br)cc21 [FD162]
- inhibition at 10 µM [1]: -1%
- inhibition at 10 µM [2]: 0%
- inhibition at 10 µM [3]: 3%
- inhibition at 10 µM [4]: 9%
- inhibition at 10 µM [5]: -8%
- inhibition at 10 µM [6]: 0%
- inhibition at 10 µM [7]: 4%
- inhibition at 10 µM [8]: -7%
- inhibition at 10 µM [9]: -9%
- inhibition at 10 µM [10]: -1%
- inhibition at 10 µM [11]: 7%
- inhibition at 10 µM [12]: 8%
- inhibition at 10 µM [13]: -13%
- inhibition at 10 µM [14]: 10%
- inhibition at 10 µM [15]: 1%
- inhibition at 10 µM [16]: -1%
- inhibition at 10 µM [17]: -2%
- inhibition at 10 µM [18]: 5%
- inhibition at 10 µM [19]: 4%
- inhibition at 10 µM [20]: 33%
- inhibition at 10 µM [21]: -3%
- inhibition at 10 µM [22]: 24%
- Selectivity among 114 tumor-associated kinases ([23]; 10 μM, in words): selectively inhibit the activity of mTOR
- inhibition at 10 µM ([23]; mTOR(h), read-out: Inhibitory rate (%)): 95%
- inhibition at 10 µM [24]: 1%
- inhibition at 10 µM [25]: 3%
- inhibition at 10 µM [26]: 4%
- inhibition at 10 µM [27]: -7%
- inhibition at 10 µM [28]: -8%
- inhibition at 10 µM [29]: 4%
- inhibition at 10 µM [30]: -4%
- inhibition at 10 µM [31]: 6%
- inhibition at 10 µM [32]: 8%
- inhibition at 10 µM [33]: 4%
- inhibition at 10 µM [34]: 1%
- inhibition at 10 µM [35]: 5%
- inhibition at 10 µM [36]: 16%
- inhibition at 10 µM [37]: 7%
- inhibition at 10 µM [38]: -14%
- inhibition at 10 µM [39]: -3%
